# Measurements taken from publication PMC10987111, “Rational Identification of Novel Antibody‐Drug Conjugate with High Bystander Killing Effect against Heterogeneous Tumors” (Advanced Science, 2024).
# Read-outs that look alike come from different tables or passages of the source.
# B1: Disitamab Vedotin (conjugate, chains of the INN, looked up)
# VH: EVQLVQSGAEVKKPGATVKISCKVSGYTFTDYYIHWVQQAPGKGLEWMGRVNPDHGDSYYNQKFKDKATITADKSTDTAYMELSSLRSEDTAVYFCARNYLFDHWGQGTLVTVSS
# VL: DIQMTQSPSSVSASVGDRVTITCKASQDVGTAVAWYQQKPGKAPKLLIYWASIRHTGVPSRFSGSGSGTDFTLTISSLQPEDFATYYCHQFATYTFGGGTKVEIK
# modifications: vedotin (MMAE) payload
# Assays:
# SKBR-3 = experiment: Cell viability assay (CCK-8), SKBR-3; format: cell-based, human
# Experimental: (§1) Cells were seeded in a 96‐well plate at 1000–4000 cells per well for different cell lines. After overnight incubation, serially diluted samples (100 µL) were added to each well, and the plate was incubated at 37°C for 72 h (payloads) or 108 h (ADCs). After the old medium was replaced with 100 µL fresh medium, 10 µL of the Cell Counting Kit‐8 (CCK‐8) was added to each well, and the plate was incubated at 37°C for 2 h. After gently agitating the plate, the absorbance at 450 nm was recorded using a BioTek Synergy microplate reader. EC50 values were calculated using GraphPad Prism 9.3 software. All assays were performed in triplicate.
# MDA-MB-231 = experiment: Cell viability assay (CCK-8), MDA-MB-231; format: cell-based, human; conditions: read-out: IC50 MDA-MB-231
# Experimental: as §1
# [1] = Parallel artificial membrane permeability assay (PAMPA); format: in vitro ADME; conditions: for Papp at 4 h, 10 µM: PAMPA
# Experimental: PAMPA was performed by WuXi AppTec Co., Ltd. (Wuxi, China). In brief, 150 µL of 10.0 µM donor solutions (5% DMSO) were added to each well of the donor plate, whose PVDF membrane was precoated with 5 µL of 1% lecithin/dodecane mixture. Then, 300 µL of PBS was added to each well of the PTFE acceptor plate. After incubation for 4 h at room temperature with shaking at 300 rpm, the plate was removed from the incubator, and the solution was transferred from each acceptor and donor well and mixed with acetonitrile (containing internal standard) as samples. Acceptor samples and donor samples were all analyzed by LC‐MS/MS to determine permeability rates (Pe). All assays were performed in duplicates.
# JIMT-1 = experiment: Cell viability assay (CCK-8), JIMT-1; format: cell-based; conditions: Homo sapiens, JIMT-1, 72 h, read-out: IC50 JIMT-1
# Experimental: as §1
# MDA-MB-453 = experiment: Cell viability assay (CCK-8), MDA-MB-453; format: cell-based; conditions: Homo sapiens, MDA-MB-453, 72 h, read-out: IC50 MDA-MB-453
# Experimental: (§2) Cells were seeded in a 96‐well plate at 1000–4000 cells per well for different cell lines. […] After the old medium was replaced with 100 µL fresh medium, 10 µL of the Cell Counting Kit‐8 (CCK‐8) was added to each well, and the plate was incubated at 37°C for 2 h. After gently agitating the plate, the absorbance at 450 nm was recorded using a BioTek Synergy microplate reader. EC50 values were calculated using GraphPad Prism 9.3 software. All assays were performed in triplicate.
# MDA-MB-361 = experiment: Cell viability assay (CCK-8), MDA-MB-361; format: cell-based; conditions: Homo sapiens, MDA-MB-361, 72 h, read-out: IC50 MDA-MB-361
# Experimental: as §1
# NCI-N87 = experiment: Cell viability assay (CCK-8), NCI-N87; format: cell-based; conditions: Homo sapiens, NCI-N87, 72 h, read-out: IC50 NCI-N87
# Experimental: as §2
# Topo I = target: T1, Topo I (Homo sapiens, UniProt P11387); experiment: Topo I-mediated DNA cleavage assay; format: biochemical; conditions: 10 µM
# T1 sequence (P11387 1-765): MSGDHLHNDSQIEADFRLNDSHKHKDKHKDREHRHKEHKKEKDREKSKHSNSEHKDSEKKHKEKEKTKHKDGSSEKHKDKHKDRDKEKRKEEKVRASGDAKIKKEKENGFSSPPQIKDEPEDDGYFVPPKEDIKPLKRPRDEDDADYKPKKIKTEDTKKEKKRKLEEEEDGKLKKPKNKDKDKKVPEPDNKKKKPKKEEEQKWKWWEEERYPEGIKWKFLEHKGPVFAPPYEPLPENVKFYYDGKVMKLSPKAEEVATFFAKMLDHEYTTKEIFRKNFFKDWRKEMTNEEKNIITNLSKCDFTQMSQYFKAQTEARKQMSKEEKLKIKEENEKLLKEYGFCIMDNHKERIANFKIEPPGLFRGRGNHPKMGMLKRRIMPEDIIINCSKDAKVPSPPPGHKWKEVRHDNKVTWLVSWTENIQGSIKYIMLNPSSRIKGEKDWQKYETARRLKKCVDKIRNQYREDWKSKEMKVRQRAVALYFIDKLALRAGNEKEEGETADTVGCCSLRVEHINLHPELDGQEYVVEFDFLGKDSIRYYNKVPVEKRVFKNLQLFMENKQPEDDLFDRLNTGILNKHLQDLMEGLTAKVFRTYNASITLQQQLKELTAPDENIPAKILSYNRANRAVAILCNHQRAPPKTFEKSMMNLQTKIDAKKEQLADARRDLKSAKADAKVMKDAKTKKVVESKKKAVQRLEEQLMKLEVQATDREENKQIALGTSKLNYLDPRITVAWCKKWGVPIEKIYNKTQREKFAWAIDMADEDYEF
# Experimental: DNA cleavage assay was performed by Huawei Pharmaceutical Co., Ltd. (Jinan, China) with reference to previous literature about camptothecin derivatives.^[ [63] ^]
# [2] = test system: NCI-N87 cells and MDA-MB-231/teLuc cells (2: 5 ratio) xenograft; experiment: Xenograft mouse model of HER2-heterogeneous cancer (co-inoculation) with teLuc imaging; format: in vivo, BALB/c nude mice; conditions: single intravenous dose of 2 or 5 mg kg^-1
# Experimental: On day 7, the tumors reached an average volume of ≈180 mm^3, mice were randomized to each group, and each ADC was given to the mice at a single dose of 5 or 2 mg kg^−1 through injection via the tail vein, with a volume of 10 mL kg^−1. The size of the tumor and body weight were monitored three times a week. The tumor volume was estimated on the mathematical formula, which is 1/2 × length × width^2.
# Teal luciferase activity of each mouse in the HER2‐heterogeneous xenograft model was determined by an in vivo Imaging System (IVIS) Spectrum CT (PerkinElmer, USA) once a week (Day 7, 14, 21, 35) 10 min after intraperitoneal injection of pre‐dissolved DTZ (MeisenCTCC). The amount of luminescence was analyzed using analysis software (Living Image Software version 4.3.1; PerkinElmer) as average radiance (p per s per cm^2 per sr).
# [3] = test system: breast tumors with low HER2 expression; set-up: method as in ref 25, 26 = [25]; 25 S. Modi , W. Jacot , T. Yamashita , J. Sohn , M. Vidal , E. Tokunaga , J. Tsurutani , N. T. Ueno , A. Prat , Y. S. Chae , K. S. Lee , N. Niikura , Y. H. Park , B. Xu , X. Wang , M. Gil‐Gil , W. Li || [26]; 26 Cancer Discov. 2022 , 12 , 1828 .; conditions: breast tumors with low HER2 expression ref 25, 26; cited from earlier work
# [4] = test system: NCI-N87 and MDA-MB-231/GFP co-culture system; experiment: In vitro co-culture model for bystander-killing evaluation; format: cell-based, human; conditions: GFP fluorescence intensity and fluorescence microscopy
# Experimental: After overnight incubation, a single concentration or a serially diluted solution of each ADC was added. Cell viability was evaluated after 120 h using the cell counting kit‐8 assay. The mixed cell viability was determined by CCK‐8 assay. […] In the supernatant proliferation inhibition experiment, gradient concentrations of ADC were incubated with NCI‐N87 (4000 cells per well) for 48 h.
# [5] = test system: HER2-low-expressing urothelial carcinoma; set-up: method as in ref 29 = [29]; 29 H. Xu , X. Sheng , L. Zhou , X. Yan , S. Li , Z. Chi , C. Cui , L. Si , B. Tang , L. Mao , B. Lian , X. Wang , X. Bai , J. Li , J. Guo , JCO 2022 , 40 , 4519 .; conditions: patients with HER2(IHC 1+), 5/13, phase II ref 29; cited from earlier work
# [6] = payloads, 3 days (72 h), HER2++, read-out: IC50 SKBR-3
# [7] = 10.0 µM donor solution, 4 h, room temperature
# [8] = 10.0 µM donor solution, 4 h, room temperature, read-out: Peff (PAMPA permeability)
# [9] = Homo sapiens, SK-BR-3, 72 h, read-out: IC50 SKBR-3
# [10] = Homo sapiens, SK-BR-3, read-out: pIC50 (converted)
# [11] = Homo sapiens, MDA-MB-231, payloads, 3 days (72 h), HER2-
# [12] = Homo sapiens, SK-BR-3, Normalized from IC50 (μM) against SKBR-3, read-out: pIC50 (converted)
# [13] = Homo sapiens, SK-BR-3, payloads, 3 days (72 h), HER2++, read-out: IC50 SKBR-3
molecule,measurement,setting,value
"CC[C@@]1(O)C(=O)OCc2c1cc1n(c2=O)Cc2c-1nc1cc(F)c(C)c3c1c2[C@@H](NC(=O)C(O)c1ccccc1)CC3 (single isomer, unassigned) [Ed3]",IC50,SKBR-3; [6],0.109 ± 0.0122 µM
"CC[C@@]1(O)C(=O)OCc2c1cc1n(c2=O)Cc2c-1nc1cc(F)c(C)c3c1c2[C@@H](NC(=O)C(O)c1ccccc1)CC3 (single isomer, unassigned) [Ed4]",IC50,"MDA-MB-231; payloads, 3 days (72 h), HER2-",4.41 nM
same,Peff (PAMPA permeability),[1]; [7],3.43 10^-6 cm/s
same,IC50,SKBR-3; [6],0.0495 ± 0.00832 µM
"NC(=O)N1c2ccccc2C=Cc2ccccc21 [Carbamazepine, reference compound]","Papp at 4 h, 10 µM",[1]; [8],> 10 ×10⁻⁶ cm/s
"CCC1(O)C(=O)OCc2c1cc1n(c2=O)Cc2c-1nc1cc(F)c(C)c3c1c2C(NC(=O)CO)CC3 (stereo not shown) [DXd, reference compound]",IC50,JIMT-1,577 nM
same,IC50,"MDA-MB-231; Homo sapiens, MDA-MB-231, 72 h",25.8 nM
same,"Papp at 4 h, 10 µM",[1]; [8],3.12 ×10⁻⁶ cm/s
same,IC50,SKBR-3; [9],0.0739 ± 0.0171 µM
same,IC50,SKBR-3; [10],0.074 µM
same,IC50,MDA-MB-453,262 nM
same,IC50,MDA-MB-361,16.4 nM
same,IC50,NCI-N87,9.03 nM
CC[C@@]1(O)C(=O)OCc2c1cc1n(c2=O)Cc2c-1nc1cc(F)c(C)c3c1c2[C@@H](NC(=O)[C@@H](O)C(C)C)CC3 [Ed1],IC50,SKBR-3; [9],0.129 µM
same,IC50,SKBR-3; [10],0.129 µM
CC[C@@]1(O)C(=O)OCc2c1cc1n(c2=O)Cc2c-1nc1cc(F)c(C)c3c1c2[C@@H](NC(=O)[C@H](O)C(C)C)CC3 [Ed2],IC50,"MDA-MB-231; payloads, 3 days (72 h), HER2-",8.32 nM
same,Peff (PAMPA permeability),[1]; [7],2.67 10^-6 cm/s
same,IC50,SKBR-3; [6],0.0421 µM
CC[C@@]1(O)C(=O)OCc2c1cc1n(c2=O)Cc2c-1nc1cc(F)c(C)c3c1c2[C@@H](NC(=O)C[C@@H](O)c1ccccc1)CC3 [Ed5],IC50,SKBR-3; [6],0.177 ± 0.0158 µM
CC[C@@]1(O)C(=O)OCc2c1cc1n(c2=O)Cc2c-1nc1cc(F)c(C)c3c1c2[C@@H](NC(=O)[C@H](O)C(F)(F)F)CC3 [Ed6],IC50,MDA-MB-231; [11],9.46 nM
same,IC50,SKBR-3; [12],0.0604 µM
same,IC50,SKBR-3; [13],0.0604 µM
CC[C@@]1(O)C(=O)OCc2c1cc1n(c2=O)Cc2c-1nc1cc(F)c(C)c3c1c2[C@@H](NC(=O)C(O)C(F)(F)F)CC3 (stereo partly shown) [Ed7],IC50,"MDA-MB-231; payloads, 3 days (72 h), HER2-",6.11 nM
same,Peff (PAMPA permeability),[1]; [7],4.96 10^-6 cm/s
same,IC50,SKBR-3; [6],0.0415 µM
CC[C@@]1(O)C(=O)OCc2c1cc1n(c2=O)Cc2c-1nc1cc(F)c(C)c3c1c2[C@@H](NC(=O)C(C)(C)O)CC3 [Ed8],IC50,MDA-MB-231; [11],4.21 nM
same,"Papp at 4 h, 10 µM",[1],5.74 ×10⁻⁶ cm/s
same,IC50,SKBR-3; [12],0.0144 µM
same,IC50,SKBR-3; [13],0.0144 ± 0.00379 µM
CC[C@@]1(O)C(=O)OCc2c1cc1n(c2=O)Cc2c-1nc1cc(F)c(C)c3c1c2[C@@H](NC(=O)C1(O)CCC1)CC3 [Ed9],IC50,"JIMT-1; payloads, 3 days, HER2+",193 nM
same,IC50,MDA-MB-231; [11],2.69 nM
same,"Papp at 4 h, 10 µM",[1],5.66 ×10⁻⁶ cm/s
same,IC50,SKBR-3; [12],0.0132 µM
same,IC50,SKBR-3; [13],0.0131 ± 0.00424 µM
same,Topo I inhibitory activity,Topo I,significantly lower than that of DXd
same,IC50,"MDA-MB-453; payloads, 3 days, HER2+",120 nM
same,IC50,"MDA-MB-361; payloads, 3 days, HER2+",1.69 nM
same,IC50,"NCI-N87; payloads, 3 days, HER2++",1.17 nM
CC[C@@]1(O)C(=O)OCc2c1cc1n(c2=O)Cc2c-1nc1cc(F)c(C)c3c1c2[C@@H](NC(=O)C1(O)CCCC1)CC3 [Ed10],IC50,"MDA-MB-231; Homo sapiens, MDA-MB-231, 72 h",5.17 nM
same,IC50,SKBR-3; [9],0.0178 ± 0.00369 µM
same,IC50,SKBR-3; [10],0.0178 µM
same,Topo I inhibitory activity,Topo I,lose their inhibitory activity
CC[C@@]1(O)C(=O)OCc2c1cc1n(c2=O)Cc2c-1nc1cc(F)c(C)c3c1c2[C@@H](NC(=O)C1(O)CCCCC1)CC3 [Ed11],IC50,"MDA-MB-231; payloads, 3 days (72 h), HER2-",5.43 nM
same,Peff (PAMPA permeability),[1]; [7],6.12 10^-6 cm/s
same,IC50,SKBR-3; [6],0.0177 ± 0.00534 µM
T-DM1,tumor volume change,[2],less effective
same,effect,[3],limited effect
same,killing of both NCI-N87 and MDA-MB-231/GFP cells in co-culture,[4],did not
B1,ORR,[5],38%
